Measurements published in patent publication US12590099B2, “Inhibitors of histone deacetylase useful for the treatment or prevention of HIV infection” (Merck Sharp & Dohme LLC, priority 2018, dated 2026).
Where two headings read alike, the source gives them in different places.

How the values were obtained:
Type in all cases: biochemical
Recombinant human HDAC1 = target: T1, Recombinant human HDAC1 (Homo sapiens, UniProt Q13547); experiment: Human HDAC enzyme inhibitor Fluor-de-Lys assay, HDAC1
T1 construct: FLAG (C); made in house
T1 sequence (Q13547 whole entry): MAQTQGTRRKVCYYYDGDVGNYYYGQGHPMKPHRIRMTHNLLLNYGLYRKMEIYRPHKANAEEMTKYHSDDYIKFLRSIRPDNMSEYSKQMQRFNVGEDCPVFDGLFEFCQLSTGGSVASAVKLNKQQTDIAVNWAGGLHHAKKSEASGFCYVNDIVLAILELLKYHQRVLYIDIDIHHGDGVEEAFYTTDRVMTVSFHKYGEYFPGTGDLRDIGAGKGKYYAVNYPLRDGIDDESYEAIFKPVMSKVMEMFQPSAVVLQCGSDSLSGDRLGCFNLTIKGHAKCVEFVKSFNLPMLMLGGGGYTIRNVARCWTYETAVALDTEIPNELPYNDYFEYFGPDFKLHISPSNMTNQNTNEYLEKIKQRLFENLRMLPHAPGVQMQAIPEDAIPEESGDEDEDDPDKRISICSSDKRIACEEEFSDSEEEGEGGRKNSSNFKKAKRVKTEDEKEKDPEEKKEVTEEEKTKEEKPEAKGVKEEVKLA
In short: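 Fluor-de-Lys format at room temperature (23° C.): compounds titrated 10-point, 1:3, preincubated with HDAC before substrate addition; HDAC1 run at 0.3 nM enzyme with 20 μM BML-KI104. Developer with excess HDAC inhibitor ends the reaction, and trypsin-liberated AMC fluorescence is the read-out.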

HDAC6 = target: T2, HDAC6 (Homo sapiens, UniProt Q9UBN7); experiment: Human HDAC enzyme inhibitor Fluor-de-Lys assay, HDAC6
T2 sequence (Q9UBN7 1-1215): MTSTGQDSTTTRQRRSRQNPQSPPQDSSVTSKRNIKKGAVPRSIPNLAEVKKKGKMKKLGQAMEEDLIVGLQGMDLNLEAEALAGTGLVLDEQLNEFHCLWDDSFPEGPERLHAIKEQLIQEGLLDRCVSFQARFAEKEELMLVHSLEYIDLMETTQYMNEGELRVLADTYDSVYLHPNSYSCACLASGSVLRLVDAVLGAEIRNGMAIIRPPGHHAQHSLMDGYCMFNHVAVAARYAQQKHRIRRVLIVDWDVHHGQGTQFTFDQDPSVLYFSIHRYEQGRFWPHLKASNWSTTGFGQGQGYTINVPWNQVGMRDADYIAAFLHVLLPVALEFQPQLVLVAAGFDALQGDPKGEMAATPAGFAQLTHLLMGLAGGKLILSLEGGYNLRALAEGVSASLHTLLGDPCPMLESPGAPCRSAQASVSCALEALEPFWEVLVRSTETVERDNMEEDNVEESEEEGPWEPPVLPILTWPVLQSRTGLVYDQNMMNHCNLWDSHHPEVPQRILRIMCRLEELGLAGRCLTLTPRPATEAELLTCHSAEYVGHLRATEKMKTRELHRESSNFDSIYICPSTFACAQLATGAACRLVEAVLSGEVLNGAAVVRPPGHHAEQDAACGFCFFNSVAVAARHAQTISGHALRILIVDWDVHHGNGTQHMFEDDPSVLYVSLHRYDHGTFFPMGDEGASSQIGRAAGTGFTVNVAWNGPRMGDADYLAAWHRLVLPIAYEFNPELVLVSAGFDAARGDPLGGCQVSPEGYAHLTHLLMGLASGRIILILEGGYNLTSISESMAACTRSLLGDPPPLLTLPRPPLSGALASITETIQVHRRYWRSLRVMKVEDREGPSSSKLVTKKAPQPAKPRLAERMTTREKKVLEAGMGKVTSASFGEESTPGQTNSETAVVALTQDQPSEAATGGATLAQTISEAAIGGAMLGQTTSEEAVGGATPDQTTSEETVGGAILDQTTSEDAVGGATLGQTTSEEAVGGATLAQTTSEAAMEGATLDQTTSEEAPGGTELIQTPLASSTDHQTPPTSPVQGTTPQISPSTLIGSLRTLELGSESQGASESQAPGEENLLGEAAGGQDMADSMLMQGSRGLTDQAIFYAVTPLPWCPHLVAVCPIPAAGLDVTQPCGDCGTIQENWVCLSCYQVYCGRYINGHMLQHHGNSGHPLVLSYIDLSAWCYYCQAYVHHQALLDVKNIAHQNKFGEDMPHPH

Recombinant human HDAC2 = target: T3, Recombinant human HDAC2 (Homo sapiens, UniProt Q92769); experiment: Human HDAC enzyme inhibitor Fluor-de-Lys assay, HDAC2
T3 construct: Full length human HDAC2-FLAG was expressed in baculovirus infected Sf9 cells; FLAG (C); made in house; host or cells: Sf9 (baculovirus)
T3 sequence (Q92769 whole entry): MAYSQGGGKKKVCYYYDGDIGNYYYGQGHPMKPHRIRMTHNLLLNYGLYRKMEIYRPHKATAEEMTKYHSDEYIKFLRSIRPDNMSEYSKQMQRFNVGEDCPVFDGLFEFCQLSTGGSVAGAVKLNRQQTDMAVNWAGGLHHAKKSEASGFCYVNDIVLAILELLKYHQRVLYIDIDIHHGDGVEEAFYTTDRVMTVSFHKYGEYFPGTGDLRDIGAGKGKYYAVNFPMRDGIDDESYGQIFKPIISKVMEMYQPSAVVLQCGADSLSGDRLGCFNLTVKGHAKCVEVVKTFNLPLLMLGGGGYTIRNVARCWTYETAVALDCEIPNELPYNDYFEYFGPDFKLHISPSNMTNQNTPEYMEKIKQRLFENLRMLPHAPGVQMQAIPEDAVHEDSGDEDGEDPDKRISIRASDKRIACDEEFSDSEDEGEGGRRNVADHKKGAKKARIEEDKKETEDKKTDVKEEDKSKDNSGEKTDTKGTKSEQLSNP
In short: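 Fluor-de-Lys format at room temperature (23° C.): compounds titrated 10-point, 1:3, preincubated with HDAC before substrate addition. Developer with excess HDAC inhibitor ends the reaction, and trypsin-liberated AMC fluorescence is the read-out.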

Recombinant human HDAC8 = target: T4, Recombinant human HDAC8 (Homo sapiens, UniProt Q9BY41); experiment: Human HDAC enzyme inhibitor Fluor-de-Lys assay, HDAC8
T4 construct: purchased Enzo Life Sciences BML-SE145-0100
T4 sequence (Q9BY41 1-377): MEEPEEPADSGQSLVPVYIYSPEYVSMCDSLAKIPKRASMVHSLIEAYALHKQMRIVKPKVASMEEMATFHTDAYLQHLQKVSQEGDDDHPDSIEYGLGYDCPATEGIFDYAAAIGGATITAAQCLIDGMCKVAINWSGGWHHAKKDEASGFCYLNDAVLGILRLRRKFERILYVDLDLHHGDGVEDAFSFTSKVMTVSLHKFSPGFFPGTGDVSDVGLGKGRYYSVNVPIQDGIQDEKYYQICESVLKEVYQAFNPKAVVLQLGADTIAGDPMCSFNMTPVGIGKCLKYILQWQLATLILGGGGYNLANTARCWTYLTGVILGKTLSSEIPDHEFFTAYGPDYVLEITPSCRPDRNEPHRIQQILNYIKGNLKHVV

[1] = recombinant human HDAC1, Fluor-de-Lys assay
[2] = recombinant human HDAC2, Fluor-de-Lys assay
[3] = recombinant human HDAC8, Fluor-de-Lys assay

SMILES	IC50 (Recombinant human HDAC1)	IC50 (HDAC6)	IC50 (Recombinant human HDAC2)	IC50 (Recombinant human HDAC8)	IC50 (Recombinant human HDAC1; [1])	IC50 (HDAC6; HDAC6, Fluor-de-Lys assay)	IC50 (Recombinant human HDAC2; [2])	IC50 (Recombinant human HDAC8; [3])
CCC(=O)CCCCC[C@H](NC(=O)[C@H]1CC12CCN(CC)CC2)c1ncc(-c2ccc(-n3cccn3)cc2)o1 [Compound 95]	5.26 nM	1250 nM	31.5 nM	20500 nM				
CCC(=O)CCCCC[C@H](NC(=O)[C@H]1CC12CCN(C)CC2)c1ncc(-c2cnc3c(c2)ncn3C)[nH]1 [Compound 256]					74.6 nM	3930 nM	280 nM	1100 nM
CCC(=O)CCCCC[C@H](NC(=O)[C@H]1CC12CCN(C)CC2)c1ncc(-c2ccc(-c3cccnc3)nc2)[nH]1 [Compound 262]					4.42 nM	33500 nM	18.8 nM	12600 nM
CCCC(=O)CCCCC[C@H](NC(=O)[C@H]1CC12CCN(C)CC2)c1ncc(-c2ccc(F)cc2)[nH]1 [Compound 239]					13.9 nM	> 45000 nM	77.4 nM	20600 nM
CCC(=O)CCCCC[C@H](NC(=O)[C@H]1CC12CCN(C)CC2)c1ncc(-c2coc3ccccc3c2=O)[nH]1 [Compound 86]	15.9 nM	3330 nM	64.8 nM	3170 nM				
CCC(=O)CCCCC[C@@H](NC(=O)C1CCC2(CC1)CNC2)c1ncc(-c2ccccc2)[nH]1 [Compound 298]					36.5 nM	5070 nM	144 nM	1690 nM
CCC(=O)CCCCC[C@H](NC(=O)[C@H]1CC12CCN(C)CC2)c1ncc(-c2ccc3nc(C(F)(F)F)ccc3c2)o1 [Compound 78, (1S)-6-methyl-N-[(1S)-7-oxo-1-{5-[2-(trifluoromethyl)quinolin-6-yl]-1,3-oxazol-2-yl}nonyl]-6-azaspiro[2.5]octane-1-carboxamide]	18.3 nM	33500 nM	62.3 nM	> 45000 nM				
CCC(=O)CCCCC[C@H](NC(=O)[C@H]1CC12CCN(C)CC2)c1ncc(-c2ccccc2F)[nH]1 [Compound 290]					15.4 nM	5990 nM	73.5 nM	5230 nM
CCC(=O)CCCCC[C@H](NC(=O)C1=NOC2(CCN(CC3CC3)CC2)C1)c1ncc(-c2cc3ccc(=O)n(C)c3cc2OC)o1 [Compound 236]					0.36 nM	> 900 nM	9.9 nM	> 900 nM
CCOc1ncc(-c2cnc([C@H](CCCCCC(=O)CC)NC(=O)[C@H]3CC34CCN(C)CC4)[nH]2)cn1 [Compound 266]					155 nM	42500 nM	372 nM	19300 nM
CCC(=O)CCCCC[C@H](NC(=O)C1=NOC2(CCN(CC)CC2)C1)c1ncc(-c2cc3ccc(C)nc3cc2F)[nH]1 [Compound 233]					3.59 nM	> 900 nM	25.2 nM	> 900 nM
CCC(=O)CCCCC[C@H](NC(=O)[C@H]1CC12CCN(CC)CC2)c1ncc(-c2ccc3c(ccc(=O)n3C)c2)o1 [Compound 97]	6.52 nM	7090 nM	23 nM	> 45000 nM				
CCC(=O)CCCCC[C@H](NC(=O)[C@@H]1CC12CCN(C)CC2)c1nnc(-c2cc3ccccc3nc2OC)o1 [Compound 305]					47.3 nM	636 nM	160 nM	> 45000 nM
CCC(=O)CCCCC[C@H](NC(=O)C1=NOC2(CCN(C)CC2)C1)c1ncc(-c2ccc(-c3cccnc3)cc2OC)o1 [Compound 222, N-{(1S)-1-[5-(2-methoxy-4-pyridin-3-ylphenyl)-1,3-oxazol-2-yl]-7-oxononyl}-8-methyl-1-oxa-2,8-diazaspiro[4.5]dec-2-ene-3-carboxamide]					1.61 nM	> 900 nM	24.5 nM	> 900 nM
